According to patent US20070292489A1, “METHOD FOR TREATMENT OF WOUND TREATMENT USING AGANOCIDES” (priority 2006, published 2007):

System: human secondary intention wound
Assay: Vacuum-assisted wound treatment combined with intermittent aganocide instillation
Assay type: in vivo
Details: pH about 4, 0.9% NaCl, 2-hour pumping at 125 mm Hg
Procedure: A human secondary intention wound approximately 3-4 cm in diameter is fitted with a polyurethane sponge, pore size 400-600 microns cut to the size of the wound and twice the thickness of the wound and covered with an adhesive film, per instructions on the vacuum system. The outlet is connected to an IV bag (500 ml) with a 0.1% sodium 2-dichloroamino-2-methylpropanesulfonate solution adjusted with HCl to a pH of about 4, 0.9% NaCl and elevated to between 0.1 and 1 meter above the wound. A 1-cm hole is punctured in the adhesive film, and a second adhesive film is used to cover the hole, with the second outlet connected to the vacuum pump.
Each cycle consists of three phases: a 2-hour pumping phase when the vacuum (125 mm Hg negative pressure) is connected and the IV bag is disconnected; a 1 second instilling phase when the vacuum is disconnected and the IV bag is connected and the aganoocide is applied to the wound; and a 1 minute holding phase when both vacuum and the IV bag are disconnected.
Each treatment has about 24 cycles and starts with a pumping phase and proceeds for 48 hours. When the treatment is completed, the dressings are changed and the treatment is repeated until full granulation has been promoted and the granulation tissue is within the level of the skin, approximately 30 to 100 days, depending on the depth of the original wound. […]

CC(C)(CS(=O)(=O)[O-])N(Cl)Cl.[Na+] [Sodium 2-dichloroamino-2-methylpropanesulfonate]
wound healing results of the combination treatment regimen compared with vacuum-assisted wound healing without aganocide or aganocide alone (Example 1: 0.1% solution, 1 second instilling, 1 minute holding, about 24 cycles per 48 hours): superior wound healing results
wound healing results of the combination treatment regimen compared with vacuum-assisted wound healing without aganocide or aganocide alone (Example 2: 0.1% solution, 5 second instilling, 30 minute holding, about 19 cycles per 48 hours): superior wound healing results
